Experimental data from patent publication US9309238B2, “Imidazo [1,2-a]pyridine compounds, synthesis thereof, and methods of using same” (priority 2009, dated 2016).
≈ marks a conversion by molar mass, not a printed value. Like-named read-outs stand apart in the source and are kept apart here.

How the values were obtained:
Test in all cases: microbe, parasite or virus in culture
[1] = tested on: rRMP (Rifampicin-resistant TB strain); type: cell-based, Mycobacterium tuberculosis
[2] = tested on: rINH (Isoniazid-resistant TB strain); type: cell-based, Mycobacterium tuberculosis
[3] = tested on: rKM (Kanamycin-resistant TB strain); type: cell-based, Mycobacterium tuberculosis
[4] = tested on: rSM (Streptomycin-resistant TB strain); type: cell-based, Mycobacterium tuberculosis
[5] = tested on: MDR-TB strain resistant to HRESP; type: cell-based; conditions: Mycobacterium tuberculosis
[6] = tested on: MDR-TB strain resistant to HREZSP; type: cell-based; conditions: Mycobacterium tuberculosis
[7] = tested on: MDR-TB strain resistant to HREKP; type: cell-based; conditions: Mycobacterium tuberculosis
[8] = tested on: MDR-TB strain resistant to HRERb* (column 5); type: cell-based; conditions: Mycobacterium tuberculosis
[9] = tested on: MDR-TB strain resistant to HREZSKPTh; type: cell-based; conditions: Mycobacterium tuberculosis
[10] = tested on: MDR-TB strain resistant to HRERb* (column 7); type: cell-based; conditions: Mycobacterium tuberculosis
[11] = tested on: MDR-TB strain resistant to HRERb* (column 8); type: cell-based; conditions: Mycobacterium tuberculosis
[12] = tested on: MDR-TB strain resistant to HREZRbTh; type: cell-based; conditions: Mycobacterium tuberculosis
[13] = tested on: extreme drug-resistant TB strain HRESPOCTh; type: cell-based; conditions: Mycobacterium tuberculosis
[14] = tested on: extreme drug-resistant TB strain HREPKOTh; type: cell-based; conditions: Mycobacterium tuberculosis
[15] = tested on: extreme drug-resistant TB strain HRESPO; type: cell-based; conditions: Mycobacterium tuberculosis
[16] = tested on: MDR-TB strain resistant to HCPTh; type: cell-based; conditions: Mycobacterium tuberculosis
[17] = single drug resistant strain rRMP
[18] = single drug resistant strain rINH
[19] = single drug resistant strain rKM

## Cc1ccc2nc(C)c(C(=O)NCc3ccc(S(C)(=O)=O)cc3)n2c1 [ND-9965]
[1]; [17]
  MIC90: 0.54 µM (≈ 0.193 µg/mL)
[2]; [18]
  MIC90: 0.57 µM (≈ 0.204 µg/mL)
[3]; [19]
  MIC90: 1.98 µM (≈ 0.708 µg/mL)
[4]
  MIC90: 2.31 µM (≈ 0.826 µg/mL)

## Cc1ccn2c(C(=O)NCc3ncc(C(F)(F)F)cc3Cl)c(C)nc2c1 [ND-9902]
[1]; [17]
  MIC90: 0.74 µM (≈ 0.283 µg/mL)
[2]; [18]
  MIC90: 1.10 µM (≈ 0.421 µg/mL)
[3]; [19]
  MIC90: 2.96 µM (≈ 1.13 µg/mL)
[4]
  MIC90: 2.95 µM (≈ 1.13 µg/mL)

## Cc1ccn2c(C(=O)NCc3cccc(OC(C)C)c3)c(C)nc2c1 [ND-9872]
[1]; [17]
  MIC90: 0.23 µM (≈ 0.0776 µg/mL)
[2]; [18]
  MIC90: 0.28 µM (≈ 0.0945 µg/mL)
[3]; [19]
  MIC90: 0.89 µM (≈ 0.3 µg/mL)
[4]
  MIC90: 0.87 µM (≈ 0.294 µg/mL)

## Cc1ccn2c(C(=O)NCc3ccc(Oc4ccc(F)cc4)cc3)c(C)nc2c1 [ND-9758]
[1]; [17]
  MIC90: <0.002 µM
[2]; [18]
  MIC90: 0.003 µM (≈ 0.00117 µg/mL)
[3]; [19]
  MIC90: 0.01 µM (≈ 0.00389 µg/mL)
[4]
  MIC90: 0.01 µM (≈ 0.00389 µg/mL)

## COc1c(N2C[C@@H]3CCCN[C@@H]3C2)c(F)cc2c(=O)c(C(=O)O)cn(C3CC3)c12 [Moxifloxacin, reference compound]
[1]; Mycobacterium tuberculosis
  MIC90: 0.1 µM (≈ 0.0401 µg/mL)
[2]; Mycobacterium tuberculosis
  MIC90: 0.12 µM (≈ 0.0482 µg/mL)
[3]; Mycobacterium tuberculosis
  MIC90: 0.24 µM (≈ 0.0963 µg/mL)
[4]; Mycobacterium tuberculosis
  MIC90: 0.15 µM (≈ 0.0602 µg/mL)

## CO[C@H]1/C=C/O[C@@]2(C)Oc3c(C)c(O)c4c(O)c(c(/C=N/N5CCN(C)CC5)c(O)c4c3C2=O)NC(=O)/C(C)=C\C=C\[C@H](C)[C@H](O)[C@@H](C)[C@@H](O)[C@@H](C)[C@H](OC(C)=O)[C@@H]1C [RMP, Rifampicin, reference compound]
[1]; Mycobacterium tuberculosis
  MIC90: > 1 µM
[2]; Mycobacterium tuberculosis
  MIC90: 0.01 µM (≈ 0.00823 µg/mL)

## Cc1ccn2c(C(=O)NCc3cccc(F)c3)c(C)nc2c1 [ND-9361]
[5]
  MIC90: 0.078 µg/mL (≈ 0.262 µM)
[6]
  MIC90: 0.019 µg/mL (≈ 0.0639 µM)
[7]
  MIC90: 0.078 µg/mL (≈ 0.262 µM)
[8]
  MIC90: 0.039 µg/mL (≈ 0.131 µM)
[9]
  MIC90: 0.019 µg/mL (≈ 0.0639 µM)
[10]
  MIC90: 0.01 µg/mL (≈ 0.0336 µM)
[11]
  MIC90: 0.078 µg/mL (≈ 0.262 µM)
[12]
  MIC90: 0.019 µg/mL (≈ 0.0639 µM)
[13]
  MIC90: 0.02 µg/mL (≈ 0.0673 µM)
[14]
  MIC90: 0.01 µg/mL (≈ 0.0336 µM)
[15]
  MIC90: 0.01 µg/mL (≈ 0.0336 µM)

## Cc1ccn2c(C(=O)NCc3ccccc3)c(C)nc2c1 [ND-8454, N-benzyl-2,7-dimethylimidazo[1,2-a]pyridine-3-carboxamide]
[1]; Mycobacterium tuberculosis
  MIC90: 0.28 µM (≈ 0.0782 µg/mL)
[2]; Mycobacterium tuberculosis
  MIC90: 0.33 µM (≈ 0.0922 µg/mL)
[3]; Mycobacterium tuberculosis
  MIC90: 1.07 µM (≈ 0.299 µg/mL)
[4]; Mycobacterium tuberculosis
  MIC90: 1.02 µM (≈ 0.285 µg/mL)
[5]
  MIC90: 0.625 µg/mL (≈ 2.24 µM)
[6]
  MIC90: 0.312 µg/mL (≈ 1.12 µM)
[16]
  MIC90: 0.313 µg/mL (≈ 1.12 µM)
[7]
  MIC90: 0.078 µg/mL (≈ 0.279 µM)
[8]
  MIC90: 0.039 µg/mL (≈ 0.14 µM)
[9]
  MIC90: 0.019 µg/mL (≈ 0.068 µM)
[10]
  MIC90: 0.039 µg/mL (≈ 0.14 µM)
[11]
  MIC90: 0.078 µg/mL (≈ 0.279 µM)
[12]
  MIC90: 0.039 µg/mL (≈ 0.14 µM)
[13]
  MIC90: 0.02 µg/mL (≈ 0.0716 µM)
[14]
  MIC90: 0.02 µg/mL (≈ 0.0716 µM)
[15]
  MIC90: 0.039 µg/mL (≈ 0.14 µM)

## NNC(=O)c1ccncc1 [INH, Isoniazid, reference compound]
[1]; Mycobacterium tuberculosis
  MIC90: 0.23 µM (≈ 0.0315 µg/mL)
[2]; Mycobacterium tuberculosis
  MIC90: > 8 µM
